Results taken from publication PMC12775823, “Glucosylceramide regulates depression through activating peroxisome proliferator-activated receptor gamma in dorsal striatum” (Theranostics, 2026).
Structures can show the parent of a compound that is named as a salt. Each block holds one molecule with its values, some of them ahead of it.

Columns and labels:
[1] = tested on: D2-MSNs in dorsal striatum of D2-Ugcg^f/f mice; test: DREADD (AAV-hM3Dq) activation of D2-MSNs, c-Fos and behavioral tests; conditions: CNO 1 mg/kg, i.p.
Description: Open field test (OFT). […] Mice were gently placed in the center and allowed to explore the area for 5 min. The total distance travelled and time spent in the center (20 × 20 cm^2) were recorded using EthoVision version 7.0 software (Noldus Information Technology, Netherlands).
Elevated plus maze test (EPMT). The apparatus consisted of two open arms (30 cm × 5 cm) and two closed arms (30 cm × 5 cm × 15 cm) extending from a central platform (5 cm × 5 cm), elevated 50 cm above the floor. Mice were placed on the central platform facing one of the open arms and allowed to explore the maze for 5 min. Behavior was recorded using a video camera positioned above the maze in conjunction with Anymaze tracking software (Stoelting Co.; Wood Dale, IL, USA).
Forced swimming test (FST). Each mouse was placed individually into a water-filled cylinder maintained at 23-25 °C and allowed to swim for 6 min. The first 2 min were considered an acclimation period, and data from this period were not included in the analysis. During the remaining 4 min, the behavior of the mice was recorded using EthoVision version 7.0 software (Noldus Information Technology, Netherlands).
D2-Cre or D2-Ugcg^f/f mice were bilaterally injected with AAV-hM3Dq into the dorsal striatum (AP +0.8 mm, ML ±1.5 mm, DV -3.0 mm). Following surgery, mice were given 3 weeks to express the virus before starting behavioral tests. Prior to each behavioral test, mice received an injection of Clozapine N-oxide (CNO; 1 mg/kg, i.p.; Sigma-Aldrich, USA) 30 min before the testing session.

GCS = tested on: T1, GCS; test: GCS activity in dorsal striatum of CRS-induced mice; format: in vivo; conditions: intra-dorsal striatal PDMP
T1 construct: from tissue; host or cells: mouse dorsal striatum

CRS-induced mice = test: Behavioral tests (OFT, EPMT, LDT, SPT, FST) in chronic restraint stress mice, intra-dorsal striatal infusion; format: in vivo
Description: For intracranial injection, mice were surgically implanted with sterilized guide cannulae in dorsal striatum. […] Mice were intraperitoneally injected with CNO (1 mg/kg/d) before behavioral test.
Chronic restraint stress (CRS). For the CRS protocol, male C57BL/6J mice (8-10 weeks old) were obtained from Charles River Laboratories (Beijing, China). Mice were individually placed into well-ventilated 50 mL conical restraint tube (suitable for mice weighing 20-25 g) with multiple holes for 4 h daily between 10:00 AM and 2:00 PM to minimize circadian rhythm variations. The restraint stress procedure was conducted for 14 consecutive days. Then, all behavioral test were performed between 10:00 AM and 18:00 PM.
(§1) Elevated plus maze test (EPMT).
(§2) Light-dark Transition test (LDT).
(§3) Sucrose preference test (SPT).
(§4) Forced swimming test (FST).

PPARγ = tested on: T2, PPARγ; test: PPARγ mRNA, protein and transcriptional activity in dorsal striatum of CRS-induced mice; format: in vivo
T2 construct: from tissue; host or cells: mouse dorsal striatum
Description: Dorsal striatal tissues were processed in accordance with the RNA isolation kit's instructions (RC102/RC112; Vazyme Biotech Co.,Ltd), mRNA was reverse transcribed using HiScript® III All-in-one RT SuperMix (Vazyme Biotech Co.,Ltd), and cDNA was amplified using SYBR Green (Vazyme Biotech Co.,Ltd). The 2^-ΔΔCt method was used to analyze gene expression, and the relative level of the target gene was normalized to Gapdh. The primer sequences can be found in Supplemental materials Table S1.
Brain tissues were cut into small pieces and then centrifuged at 13,000 g for 15 min at 4 °C. Supernatants were collected, and proteins concentrations were determined by BCA assay. Samples were denatured at 95 °C for 5 min and subsequently stored at -80 °C for further use. Protein samples were loaded onto 10% SDS-PAGE and transferred on PVDF membranes. After being blocked with 5% nonfat dry milk in Tris-buffered saline with 0.1% Tween-20 for 1.5 h, the PVDF membranes were incubated with corresponding primary antibodies overnight at 4 °C. Membranes were then incubated with HRP-conjugated secondary antibodies for 1 h at room temperature and measured with chemiluminescence imaging system (ChemiScope; Clinx, China).
Nuclear extracts were prepared from N2a cells using a nuclear extraction kit according to the manufacturer protocol. The binding reaction between PPARγ and PPRE was carried out at 4°C for 16 h using 3 μg of nuclear extracts. The binding activity between PPARγ and PPRE was indicated by the change of optical density (OD) at 405 nm, and an enzyme reaction was measured by HRP-conjugated antibody in complex of PPRE/ PPARγ/antibody.

D2-Pparg^f/f mice = test: Behavioral tests in D2-Pparg f/f mice after intra-dorsal striatal microinfusion; format: in vivo; conditions: UNC 10 μM, 1 μL/side
Description: For intracranial injection, mice were surgically implanted with sterilized guide cannulae in dorsal striatum. Intra-dorsal striatal injection of PDMP (100 μM, 1 μL/injection), pioglitazone (100 μM, 1 μL/injection), UNC (10 μM, 1 μL/injection) was performed 30 min before behavioral test. Mice were intraperitoneally injected with CNO (1 mg/kg/d) before behavioral test.
as §1, §2, §3, §4

D2-Ugcg^f/f mice = test: Behavioral tests in D2-Ugcg f/f mice after intra-dorsal striatal microinfusion; format: in vivo; conditions: pioglitazone 1 μM, 1 μL per side
[2] = tested on: depression and bipolar disorder; set-up: method as in PMID 30699881; conditions: clinical; ref [10]; cited from earlier work
PPARγ target genes = test: qRT-PCR of PPARγ target genes in PPARγ-overexpressing N2a cells; format: cell-based; conditions: 0.1, 1 and 10 μM
[3] = LC-MS of GlcCer levels in dorsal striatum of CRS-induced mice; format: in vivo; conditions: intra-dorsal striatum infusion of pioglitazone, GlcCer or combination
Description: The procedure for the extraction of sphingolipids was established according to the LIPID MAPS protocol with modifications. Briefly, dorsal striatal tissues were added 0.5 mL of MeOH, 0.25 mL of CHCl3 and 7.5 μL of internal standards cocktail (2.5 μM). For sphingolipidomics, 5 μL of internal standards mixture (LM6002, Avanti polar lipids) was added. The mixture was then ultrasonicated for 45 s at room temperature and incubation at 48°C overnight. To avoid potentially interfering glycerolipids, 75 μL of KOH in MeOH (1M) was added, followed by incubation in a heat block at 200 rpm for 2 h at 37 °C. After neutralization, a four-step extraction process was performed to obtain SPL extract for analysis. The supernatant was transferred to a new Eppendorf tube and the resides were added l mL of MeOH and 2 mL of CHCl3, followed by centrifugation at 3800 rpm for 8 min. […] Sphingolipidomics were measured with ultra-high-performance liquid chromatography (UPLC) coupled with hybrid Quadrupole-Orbitrap high resolution mass spectrometry (Q-Exactive-HRMS). […] For […] quantitation, brain tissues were quantified by UPLC-MS/MS using a Q-Exactive-HRMS with UPLC. […] Quantification of […] with various fatty acid chain lengths were achieved using the calibration curve of each GlcCer species with closest number of chain length. […]

[4] = D2-Ugcg^f/f mice with AAV-hM3Dq
[5] = CRS mice, PDMP 100 μM, 1 μL/side

Structure (SMILES): C[N+]1([O-])CCN(C2=Nc3cc(Cl)ccc3Nc3ccccc32)CC1 [CNO, Clozapine-N-oxide]
expression of c-Fos ([1]; AAV-hM3Dq-injected mice): significantly increased | immobility time in the FST [1, 4]: lower | time in the center area in the OFT [1, 4]: more time | time in the light room in the LDT [1, 4]: more time | time in the open arms in the EPMT [1, 4]: more time

Structure (SMILES): CCCCCCCCCC(=O)N[C@@H](CN1CCOCC1)[C@@H](O)c1ccccc1.Cl [PDMP, (-)-L-threo-PDMP hydrochloride]
GCS activity in the dorsal striatum (GCS): significantly enhanced | immobility time in the FST (CRS-induced mice; [5]): reduced | sucrose preference in the SPT (CRS-induced mice; [5]): restored | time spent in light area in the LDT (CRS-induced mice; [5]): increased | time spent in open arms in the EPMT (CRS-induced mice; [5]): increased | time spent in the center area in the OFT (CRS-induced mice; [5]): increased | anxiety- and depression-like behaviors following CRS (CRS-induced mice; PDMP 100 μM, 1 μL/side, intra-dorsal striatum): significantly ameliorated | PPARγ activity in the dorsal striatum (PPARγ; PDMP treatment): significantly enhanced | PPARγ mRNA or protein expression (PPARγ; PDMP treatment): did not alter

Structure (SMILES): Clc1cccc(N2CCN(CCCOc3ccc4scnc4c3)CC2)c1Cl [UNC, UNC9995]
reductions in the OFT, EPMT, LDT, SPT, and FST (D2-Pparg^f/f mice): effectively reversed

GlcCer levels in the dorsal striatum (LC-MS) [3]: did not alter
Structure (SMILES): CCc1ccc(CCOc2ccc(CC3SC(=O)NC3=O)cc2)nc1 (centres unmarked) [pioglitazone, Pioglitazone hydrochloride]
anxiety- and depression-like behaviors in the OFT, EPMT, LDT, SPT, and FST (D2-Ugcg^f/f mice): effectively reversed | symptoms of depression and bipolar disorder [2]: proven effective | expression of Adipoq and Leptin (PPARγ target genes): robustly upregulated | expression of Angptl4 (PPARγ target genes): significantly increased | expression of adipogenesis-related genes (Srebp-1c, Adrp, Fabp4, Fasn, Cd36) (PPARγ target genes): strongly induced | stress-induced depression-like behaviors (overall) (CRS-induced mice; CRS mice, administration of GlcCer, pioglitazone or combined): reverses | PPARγ mRNA or protein expression (PPARγ; intra-dorsal striatum pioglitazone, GlcCer or combination): neither pioglitazone, GlcCer, nor their combination altered
